What follows are compounds tested against T1, SARS-CoV PLP2 (Severe acute respiratory syndrome coronavirus, UniProt P0C6U8). Conditions: not given.
Format: biochemical

Row | Compound | found in the screen for inhibitor of SARS-CoV PLP2 | effects on the activity of SARS-CoV PLP2 | inhibition of SARS-CoV PLP2, in words | IC50 [nM] | effective in inhibiting SARS-CoV PLP2
1 | Nc1nc(S)c2[nH]cnc2n1 [2-amino-6-mercaptopurine] | found |  |  |  | 
2 | Sc1ncnc2nc[nH]c12 [6-mercaptopurine] | found |  |  |  | 
3 | Cn1cnc([N+](=O)[O-])c1Sc1ncnc2nc[nH]c12 [Azathioprine] | found |  |  |  | 
4 | [Ca] [Ca] |  | no effects |  |  | 
5 | O=NN(CCCl)C(=O)NCCCl [Carmustine] | found |  |  |  | 
6 | [Co] [Co] |  | no effects |  |  | 
7 | S=C([S-])N(Cc1ccccc1)Cc1ccccc1.S=C([S-])N(Cc1ccccc1)Cc1ccccc1.[Zn+2] [Dibenzyl dithiocarbamic Zn] |  |  | effective in inhibiting |  | 
8 | O=C([O-])c1ccccc1-c1c2cc(Br)c(=O)cc-2oc2[c]([Hg+])c([O-])c(Br)cc12.[Na+].[Na+].[OH-] [Merbromin] | found |  |  |  | 
9 | [Mg] [Mg] |  | no effects |  |  | 
10 | [Mn] [Mn] |  | no effects |  |  | 
11 | CCN(C(=S)[S-])c1ccccc1.CCN(C(=S)[S-])c1ccccc1.[Zn+2] [N-ethyl-N-phenyldithiocarbamic acid Zn] |  |  | effective in inhibiting |  | 
12 | [Ni] [Ni] |  | no effects |  |  | 
13 | CN(C)C(=S)SSC(=S)N(C)C [Thiram] | found |  |  |  | 
14 | [Zn+2] [Zinc ion] |  |  |  | 1300 | 
15 | [O-]n1ccccc1=S.[O-]n1ccccc1=S.[Zn+2] [hydroxypridine-2-thione Zn] |  |  | effective in inhibiting |  | 
16 | cystatin |  |  |  |  | none of them was effective

Same assay, conditions: 0.1 mM

Row | Compound | effective in inhibiting SARS-CoV PLP2
17 | CC(=O)N[C@@H](CC(C)C)C(=O)N[C@@H](CC(C)C)C(=O)N[C@H](C=O)CCCNC(=N)N [leupeptin] | none of them was effective

Same assay, conditions: 1 mM

Row | Compound | effective in inhibiting SARS-CoV PLP2
18 | CCN1C(=O)C=CC1=O [N-ethylmaleimide] | effective
19 | CC(C)C[C@H](NC(=O)[C@@H](NC(=O)N[C@@H](Cc1ccccc1)C(=O)O)[C@@H]1CCN=C(N)N1)C(=O)N[C@H](C=O)Cc1ccccc1 [chymostatin] | none of them was effective

Target: T1, SARS-CoV PLP2
Conditions: not given
Remark: another data set of the same source

Row | Compound | percentage of the cleavage after 2 hours of digestion [%] | percentage of the cleavage after 12 hours of digestion [%] | Cleavage % 2 h [%] | Cleavage % 2 hours [%] | Cleavage % 12 h [%] | Cleavage % 12 hours [%]
20 | FRLKGGAPI [FRLKGG-API] | 36 | 85 |  |  |  | 
21 | FRLKGGAPIK [FRLKGG-APIK] | 50 | 100 |  |  |  | 
22 | FRLKGGAPIKGV | 70 | 100 | 70.1 ± 7.4 | 70 ± 7 | 100 ± 0.0 | 100
23 | ISLKGGKIVSTC [Gly2740-Lys2741] | 7 | 29 |  | 7 ± 1 |  | 29 ± 4
24 | LKGGAPIK | 11 | 45 |  |  |  | 
25 | NNVFRLKGGAPIKGVTFG [N N V F R L K G G A P I K G V T F G] |  |  |  | 60.5 ± 0.7 |  | 100 ± 0.0
26 | NVFRLKGGAPIKGVTF [N V F R L K G G A P I K G V T F] |  |  |  | 63.0 ± 1.4 |  | 100 ± 0.0
27 | RLKGGAPIKG [RLKGG-APIKG] |  | 56 |  |  |  | 

Same assay, conditions: pH 6.8

Row | Compound | Cleavage % 2 hours [%] | Cleavage % 12 hours [%]
28 | FRLKGGAPI [FRLKGG-API] | 36.2 ± 6.4 | 85.1 ± 4.9
29 | FRLKGGAPIK [FRLKGG-APIK] | 49.9 ± 2.6 | 100 ± 0.0
30 | FRLKGGAPIKGV | 70.1 ± 7.4 | 100 ± 0.0
31 | LKGGAPIK | 11.4 ± 4.3 | 44.7 ± 3.5
32 | RLKGGAPIKG [RLKGG-APIKG] | 14.8 ± 4.1 | 56.4 ± 5.6
33 | VFRLKGGAPIK | 52.9 ± 3.5 | 100 ± 0.0
34 | VFRLKGGAPIKGVT [V F R L K G G A P I K G V T] | 67.6 ± 9.0 | 100 ± 0.0

Reference: patent publication US20070160981A1 (priority 2005, published 2007)
